The results in this text go back to US12390441B2, “Immunomodulating o-het/aryl azalides” (Zoetis Services LLC, priority 2020, dated 2025).

Test [1] relates to BRD pathogens, M. haemolytica and P. multocida. Put plainly: In-vitro MIC model, BRD pathogen screening panel. It counts as cell-based, Mannheimia haemolytica; Pasteurella multocida.
The next test concerns TNF-α. In words: Whole blood assay, LPS stimulation, MSD cytokine detection. It counts as cell-based. The settings on record: fresh whole bovine blood.
Another test deals with IL-1β. The test is described as above. Type of test: cell-based, bovine. The settings on record: fresh whole bovine blood, LPS stimulation; drug concentration giving overstimulation (OS) of IL-1β.
The next test relates to IL-6. The description is as above. Type of test: cell-based. The following applies: fresh whole bovine blood.

Marks after values point to notes of the source that are not given here.

In general, IC50 refers to the concentration that inhibits the measured activity by half. On to `CCCNC[C@]1(O)[C@H](C)O[C@@H](O[C@H]2[C@H](C)[C@@H](O[C@@H]3O[C@H](C)C[C@H](NC)[C@H]3Oc3cc(F)c(OC)c(F)c3)[C@](C)(O)C[C@@H](C)CN[C@H](C)[C@@H](O)[C@](C)(O)[C@@H](CC)OC(=O)[C@@H]2C)C[C@@]1(C)OC` [Example E-9], for which the “MIC flag at the example number (Table E)” value in test [1] (at least one BRD strain) was “E-9* (MIC ≤ 64 μg/mL for at least one BRD strain)”. The figures for the IC50 in the test on TNF-α and in the test on IL-6 were 18 µM and 30 µM, respectively. Also, the “IL-1ß OS of LPS” value in the test on IL-1β came to 40 µM.
`CCCNC[C@]1(O)[C@H](C)O[C@@H](O[C@H]2[C@H](C)[C@@H](O[C@@H]3O[C@H](C)C[C@H](N(C)C)[C@H]3Oc3cccc(OC)c3)[C@](C)(O)C[C@@H](C)CN[C@H](C)[C@@H](O)[C@](C)(O)[C@@H](CC)OC(=O)[C@@H]2C)C[C@@]1(C)OC` [Example E-73]: in test [1] (at least one BRD strain), the “MIC flag at the example number (Table E)” value is reported as “E-73* (MIC ≤ 64 μg/mL for at least one BRD strain)”. Moreover, the figures for the IC50 in the test on TNF-α and in the test with IL-6 were 5 µM and 18 µM, respectively. Further, the “IL-1ß OS of LPS” value in the test with IL-1β is 16 µM.
Take `CC[C@H]1OC(=O)[C@H](C)[C@@H](O[C@H]2C[C@@](C)(OC)[C@](O)(CNc3ccccc3)[C@H](C)O2)[C@H](C)[C@@H](O[C@@H]2O[C@H](C)C[C@H](N(C)C)[C@H]2Oc2ccccc2)[C@](C)(O)C[C@@H](C)CN[C@H](C)[C@@H](O)[C@]1(C)O` [Example E-67]: the “MIC flag at the example number (Table E)” value in test [1] (at least one BRD strain) is recorded as “E-67* (MIC ≤ 64 μg/mL for at least one BRD strain)”. In addition, the IC50 in the test with TNF-α is 5 µM; in the test on IL-6, 8 µM. For the same compound, in the test with IL-1β, the “IL-1ß OS of LPS” value is 6 µM.
`CCCNC[C@]1(O)[C@H](C)O[C@@H](O[C@H]2[C@H](C)[C@@H](O[C@@H]3O[C@H](C)C[C@H](NC)[C@H]3Oc3cccc(F)c3)[C@](C)(O)C[C@@H](C)CN[C@H](C)[C@@H](O)[C@](C)(O)[C@@H](CC)OC(=O)[C@@H]2C)C[C@@]1(C)OC` [Example E-7]: the “MIC flag at the example number (Table E)” value in test [1] (at least one BRD strain) was “E-7* (MIC ≤ 64 μg/mL for at least one BRD strain)”. Besides, the IC50 in the test on TNF-α came out at 15 µM; with IL-6 it was 40 µM. In the test on IL-1β, the “IL-1ß OS of LPS” value was 40 µM.
Take `CCCNC[C@]1(O)[C@H](C)O[C@@H](O[C@H]2[C@H](C)[C@@H](O[C@@H]3O[C@H](C)C[C@H](NC)[C@H]3Oc3ccc(OC)nc3OC)[C@](C)(O)C[C@@H](C)CN[C@H](C)[C@@H](O)[C@](C)(O)[C@@H](CC)OC(=O)[C@@H]2C)C[C@@]1(C)OC` [Example E-77]: the “MIC flag at the example number (Table E)” value in test [1] (at least one BRD strain) was “E-77* (MIC ≤ 64 μg/mL for at least one BRD strain)”. In addition, the IC50 in the test on TNF-α stood at 22 µM; in the test on IL-6 it was 66 µM. The “IL-1ß OS of LPS” value with IL-1β amounted to 18 µM.
For `CCCNC[C@]1(O)[C@H](C)O[C@@H](O[C@H]2[C@H](C)[C@@H](O[C@@H]3O[C@H](C)C[C@H](NC)[C@H]3Oc3ccc(F)c(F)c3)[C@](C)(O)C[C@@H](C)CN[C@H](C)[C@@H](O)[C@](C)(O)[C@@H](CC)OC(=O)[C@@H]2C)C[C@@]1(C)OC` [Example E-36], in that order: “E-36* (MIC ≤ 64 μg/mL for at least one BRD strain)”, 3 µM, 10 µM and 16 µM.
For `CCCNC[C@]1(O)[C@H](C)O[C@@H](O[C@H]2[C@H](C)[C@@H](O[C@@H]3O[C@H](C)C[C@H](NC)[C@H]3Oc3cc(F)c(F)c(F)c3)[C@](C)(O)C[C@@H](C)CN[C@H](C)[C@@H](O)[C@](C)(O)[C@@H](CC)OC(=O)[C@@H]2C)C[C@@]1(C)OC` [Example E-90], in that order: “E-90* (MIC ≤ 64 μg/mL for at least one BRD strain)”, 12 µM, 8 µM and 6 µM.
Take `CCCNC[C@]1(O)[C@H](C)O[C@@H](O[C@H]2[C@H](C)[C@@H](O[C@@H]3O[C@H](C)C[C@H](NC)[C@H]3Oc3ccccc3C)[C@](C)(O)C[C@@H](C)CN[C@H](C)[C@@H](O)[C@](C)(O)[C@@H](CC)OC(=O)[C@@H]2C)C[C@@]1(C)OC` [Example E-61]: the “MIC flag at the example number (Table E)” value in test [1] (at least one BRD strain) was “E-61* (MIC ≤ 64 μg/mL for at least one BRD strain)”. For the same compound, the figures for the IC50 in the test on TNF-α and in the test with IL-6 were 5 µM and 19 µM, respectively. For the same compound, in the test on IL-1β, the “IL-1ß OS of LPS” value is 16 µM.
For `CCCNC[C@]1(O)[C@H](C)O[C@@H](O[C@H]2[C@H](C)[C@@H](O[C@@H]3O[C@H](C)C[C@H](NC)[C@H]3Oc3ccc4ccncc4c3)[C@](C)(O)C[C@@H](C)CN[C@H](C)[C@@H](O)[C@](C)(O)[C@@H](CC)OC(=O)[C@@H]2C)C[C@@]1(C)OC` [Example E-56] the same measures were “E-56* (MIC ≤ 64 μg/mL for at least one BRD strain)”, 11 µM, 120 µM and 100 µM.
With `CCCNC[C@]1(O)[C@H](C)O[C@@H](O[C@H]2[C@H](C)[C@@H](O[C@@H]3O[C@H](C)C[C@H](N(C)C)[C@H]3Oc3ccc(C(=O)N4CCCC4)cc3)[C@](C)(O)C[C@@H](C)CN[C@H](C)[C@@H](O)[C@](C)(O)[C@@H](CC)OC(=O)[C@@H]2C)C[C@@]1(C)OC` [Example E-95], the “MIC flag at the example number (Table E)” value in test [1] (at least one BRD strain) is listed as “E-95* (MIC ≤ 64 μg/mL for at least one BRD strain)”.
Turning to `CC[C@H]1OC(=O)[C@H](C)[C@@H](O[C@H]2C[C@@](C)(OC)[C@@H](O)[C@H](C)O2)[C@H](C)[C@@H](O[C@@H]2O[C@H](C)C[C@H](N(C)C)[C@H]2Oc2ccccc2C#N)[C@](C)(O)C[C@@H](C)CN(C)[C@H](C)[C@@H](O)[C@]1(C)O` [Example A-3], the “MIC flag at the example number (Table A)” value in test [1] (at least one BRD strain) was “A-3* (MIC ≤ 64 μg/mL for at least one BRD strain)”.
`CCCNC[C@]1(O)[C@H](C)O[C@@H](O[C@H]2[C@H](C)[C@@H](O[C@@H]3O[C@H](C)C[C@H](NC)[C@H]3Oc3ccc(OC)c(OC)c3)[C@](C)(O)C[C@@H](C)CN[C@H](C)[C@@H](O)[C@](C)(O)[C@@H](CC)OC(=O)[C@@H]2C)C[C@@]1(C)OC` [Example E-74]: the “MIC flag at the example number (Table E)” value in test [1] (at least one BRD strain) is “E-74* (MIC ≤ 64 μg/mL for at least one BRD strain)”.
As to `CCCNC[C@]1(O)[C@H](C)O[C@@H](O[C@H]2[C@H](C)[C@@H](O[C@@H]3O[C@H](C)C[C@H](NC)[C@H]3Oc3cc(OC)ccc3F)[C@](C)(O)C[C@@H](C)CN[C@H](C)[C@@H](O)[C@](C)(O)[C@@H](CC)OC(=O)[C@@H]2C)C[C@@]1(C)OC` [Example E-18], in test [1] (at least one BRD strain), the “MIC flag at the example number (Table E)” value is “E-18* (MIC ≤ 64 μg/mL for at least one BRD strain)”.
Take `CC[C@H]1OC(=O)[C@H](C)[C@@H](O)[C@H](C)[C@@H](O[C@@H]2O[C@H](C)C[C@H](N(C)C(=O)N(C)c3ccccc3)[C@H]2Oc2ccc(OC)cc2)[C@](C)(O)C[C@@H](C)CN(C)[C@H](C)[C@@H](O)[C@]1(C)O` [Example C-13]: the “MIC flag at the example number (Table C)” value in test [1] (at least one BRD strain) was “C-13* (MIC ≤ 64 μg/mL for at least one BRD strain)”. This compound registered an IC50 in the test on TNF-α of 44 µM. In the test on IL-1β, the “IL-1ß OS of LPS” value came to 40 µM.
Turning to `CCCNC[C@]1(O)[C@H](C)O[C@@H](O[C@H]2[C@H](C)[C@@H](O[C@@H]3O[C@H](C)C[C@H](NC)[C@H]3Oc3ccc(OC)c(OC(C)C)c3)[C@](C)(O)C[C@@H](C)CN[C@H](C)[C@@H](O)[C@](C)(O)[C@@H](CC)OC(=O)[C@@H]2C)C[C@@]1(C)OC` [Example E-20], the “MIC flag at the example number (Table E)” value in test [1] (at least one BRD strain) was “E-20* (MIC ≤ 64 μg/mL for at least one BRD strain)”. Moreover, the IC50 was determined as 25 µM with TNF-α and 40 µM in the test on IL-6. The “IL-1ß OS of LPS” value in the test on IL-1β stood at 100 µM.
For the compound `CCCNC[C@]1(O)[C@H](C)O[C@@H](O[C@H]2[C@H](C)[C@@H](O[C@@H]3O[C@H](C)C[C@H](N(C)C(=O)N(C)c4ccccc4)[C@H]3Oc3ccccc3Cl)[C@](C)(O)C[C@@H](C)CN[C@H](C)[C@@H](O)[C@](C)(O)[C@@H](CC)OC(=O)[C@@H]2C)C[C@@]1(C)OC` [Example F-10], the “MIC for at least one BRD strain (asterisk on Ex#)” value in test [1] (Table F, Formula (1-A1a) compounds) is listed as “F-10* (MIC ≤ 64 μg/mL for at least one BRD strain)”.
For the compound `CC[C@H]1OC(=O)[C@H](C)[C@@H](O)[C@H](C)[C@@H](O[C@@H]2O[C@H](C)C[C@H](N(C)C(=O)N(C)c3ccccc3)[C@H]2Oc2ccc3ncsc3c2)[C@](C)(O)C[C@@H](C)CN(C)[C@H](C)[C@@H](O)[C@]1(C)O` [Example C-11], the “MIC flag at the example number (Table C)” value in test [1] (at least one BRD strain) is listed as “C-11* (MIC ≤ 64 μg/mL for at least one BRD strain)”.
As to `CC[C@H]1OC(=O)[C@H](C)[C@@H](O[C@H]2C[C@@](C)(OC)[C@](O)(CNC3CC3)[C@H](C)O2)[C@H](C)[C@@H](O[C@@H]2O[C@H](C)C[C@H](N(C)C)[C@H]2Oc2ccccc2)[C@](C)(O)C[C@@H](C)CN[C@H](C)[C@@H](O)[C@]1(C)O` [Example E-140], the “MIC flag at the example number (Table E)” value in test [1] (at least one BRD strain) was “E-140* (MIC ≤ 64 μg/mL for at least one BRD strain)”.
On to `CCCNC[C@]1(O)[C@H](C)O[C@@H](O[C@H]2[C@H](C)[C@@H](O[C@@H]3O[C@H](C)C[C@H](NC)[C@H]3Oc3cccc(OC(F)(F)F)c3)[C@](C)(O)C[C@@H](C)CN[C@H](C)[C@@H](O)[C@](C)(O)[C@@H](CC)OC(=O)[C@@H]2C)C[C@@]1(C)OC` [Example E-54], for which the “MIC flag at the example number (Table E)” value in test [1] (at least one BRD strain) was “E-54* (MIC ≤ 64 μg/mL for at least one BRD strain)”.
Still for that read-out and setting: the value for `CCCNC[C@]1(O)[C@H](C)O[C@@H](O[C@H]2[C@H](C)[C@@H](O[C@@H]3O[C@H](C)C[C@H](NC)[C@H]3Oc3ccc(F)cc3C)[C@](C)(O)C[C@@H](C)CN[C@H](C)[C@@H](O)[C@](C)(O)[C@@H](CC)OC(=O)[C@@H]2C)C[C@@]1(C)OC` [Example E-23] was “E-23* (MIC ≤ 64 μg/mL for at least one BRD strain)”; that for `CC[C@H]1OC(=O)[C@H](C)[C@@H](O[C@H]2C[C@@](C)(OC)[C@](O)(CNc3ccccc3)[C@H](C)O2)[C@H](C)[C@@H](O[C@@H]2O[C@H](C)C[C@H](NC)[C@H]2Oc2ccccc2)[C@](C)(O)C[C@@H](C)CN[C@H](C)[C@@H](O)[C@]1(C)O` [Example E-137] was “E-137* (MIC ≤ 64 μg/mL for at least one BRD strain)”.
